Data: ChEMBL document CHEMBL6153094, “Rationally designed highly amphipathic antimicrobial peptides demonstrating superior bacterial selectivity relative to the corresponding α-helix peptide” (Eur J Med Chem, 2025)
Calls of active or inactive are those of the source. The rule behind the calls is not given here.

Assays:
Staphylococcus aureus [1] = assay: Antimicrobial activity against methicillin-drug resistant Staphylococcus aureus clinical isolate 48 assessed as concentration required to eliminate 90% bacteria incubated for 18 hrs by broth-microdilution method; type: functional
Escherichia coli = assay: Antimicrobial activity against multi-drug resistant Escherichia coli clinical isolate 780 assessed as concentration required to eliminate 90% bacteria incubated for 18 hrs by broth-microdilution method; type: functional
Pseudomonas aeruginosa [2] = assay: Antimicrobial activity against multi-drug resistant Pseudomonas aeruginosa clinical isolate 86 assessed as concentration required to eliminate 90% bacteria incubated for 18 hrs by broth-microdilution method; type: functional
Staphylococcus aureus [3] = assay: Antibacterial activity against Staphylococcus aureus ATCC 25923 assessed as inhibition of bacterial growth at 2 times of MIC incubated for 18 hrs in presence of <2 microg/ml of chymotrypsin by absorbance based assay; type: functional, organism-based
Staphylococcus aureus [4] = assay: Bactericidal activity against Staphylococcus aureus ATCC 25923 at 2 times of MIC incubated for 18 hrs in presence of 20 microg/ml of trypsin by absorbance based assay; type: functional, organism-based
Staphylococcus aureus [5] = assay: Bactericidal activity against Staphylococcus aureus ATCC 25923 at 2 times of MIC incubated for 18 hrs in presence of 20 microg/ml of chymotrypsin by absorbance based assay; type: functional, organism-based
Pseudomonas aeruginosa [6] = assay: Antibacterial activity against Pseudomonas aeruginosa ATCC 27853 assessed as fold change in MIC incubated for 18 hrs in presence of NaCl by Mueller-Hinton broth based assay; type: functional
Staphylococcus aureus [7] = assay: Antibacterial activity against Staphylococcus aureus ATCC 25923 assessed as fold change in MIC incubated for 18 hrs in presence of KCl by Mueller-Hinton broth based assay; type: functional
Staphylococcus aureus [8] = assay: Antibacterial activity against Staphylococcus aureus ATCC 25923 incubated for 18 hrs in presence of MgCl2 by Mueller-Hinton broth based assay; type: functional, organism-based
Pseudomonas aeruginosa [9] = assay: Antibacterial activity against Pseudomonas aeruginosa ATCC 27853 assessed as fold change in MIC incubated for 18 hrs in presence of 2.5% serum by broth microdilution method; type: functional
Staphylococcus aureus [10] = assay: Antibacterial activity against Staphylococcus aureus ATCC 25923 assessed as fold change in MIC incubated for 18 hrs in presence of 2.5% serum by broth microdilution method; type: functional
Staphylococcus aureus [11] = assay: Antibacterial activity against Staphylococcus aureus ATCC 25923 incubated for 18 hrs in presence of 10% serum by broth microdilution method; type: functional, organism-based
Pseudomonas aeruginosa [12] = assay: Antibiofilm activity in Pseudomonas aeruginosa ATCC 27853 assessed as inhibition of biofilm formation at 1/2 times of MIC incubated for 24 hrs by crystal violet staining based analysis; type: functional, organism-based
Staphylococcus aureus [13] = assay: Antibiofilm activity in Staphylococcus aureus ATCC 25923 assessed as inhibition of biofilm formation at 1/2 times of MIC incubated for 24 hrs by crystal violet staining based analysis relative to control; type: functional
Pseudomonas aeruginosa [14] = assay: Resistance fold, ratio of MIC for Pseudomonas aeruginosa ATCC 27853 measured after 20 passages to MIC for Pseudomonas aeruginosa ATCC 27853 measured immediately; type: functional
Staphylococcus aureus [15] = assay: Resistance fold, ratio of MIC for Staphylococcus aureus ATCC 25923 measured after 20 passages to MIC for Staphylococcus aureus ATCC 25923 measured immediately; type: functional
Pseudomonas aeruginosa [16] = assay: Resistance fold, ratio of MIC for Pseudomonas aeruginosa ATCC 27853 measured after 20 passages in presence of gentamicin to MIC for Pseudomonas aeruginosa ATCC 27853 measured immediately in presence of gentamicin; type: functional
Pseudomonas aeruginosa [17] = assay: Synergistic antimicrobial activity against gentamicin-resistant Pseudomonas aeruginosa ATCC 27853 assessed as fractional inhibitory concentration index incubated for 18 hrs in presence of gentamicin by checkerboard microdilution method; type: functional
Pseudomonas aeruginosa [18] = assay: Bactericidal activity against Pseudomonas aeruginosa ATCC 27853 assessed as bacterial killing at 1 to 4 times of MIC by time-kill kinetics assay; type: functional, organism-based; settings: time <= 360.0 min
Staphylococcus aureus [19] = assay: Bactericidal activity against Staphylococcus aureus ATCC 25923 assessed as bacterial killing at 1 to 4 times of MIC by time-kill kinetics assay; type: functional, organism-based; settings: time <= 360.0 min
Pseudomonas aeruginosa [20] = assay: Bactericidal activity against Pseudomonas aeruginosa ATCC 27853 assessed as bacterial killing measured upto 360 mins by time-kill kinetics assay; type: functional, organism-based
Staphylococcus aureus [21] = assay: Bactericidal activity against Staphylococcus aureus ATCC 25923 assessed as bacterial killing measured upto 360 mins by time-kill kinetics assay; type: functional, organism-based
Staphylococcus aureus [22] = assay: Bactericidal activity against Staphylococcus aureus ATCC 25923 assessed as bacterial eradication at 4 times of MIC measured within 30 mins by time-kill kinetics assay; type: functional, organism-based
Cell membrane = assay: Induction of inner membrane permeabilization in Escherichia coli ML-35 ATCC 43837 assessed as increase in […] measured for 135 mins by ONPG based analysis; type: subcellular
Pseudomonas aeruginosa [23] = assay: Induction of morphological changes in Pseudomonas aeruginosa ATCC 27853 assessed as cellular fragmentation at 2 times of MIC incubated for 30 to 120 mins by SEM analysis; type: functional, organism-based; settings: time 30-120 min
Pseudomonas aeruginosa [24] = assay: Induction of morphological changes in Pseudomonas aeruginosa ATCC 27853 assessed as blister formation at 2 times of MIC incubated for 30 to 120 mins by SEM analysis; type: functional, organism-based; settings: time 30-120 min
Staphylococcus aureus [25] = assay: Induction of morphological changes in Staphylococcus aureus ATCC 25923 assessed as cell adhesion at 2 times of MIC incubated for 30 to 120 mins by SEM analysis; type: functional, organism-based; settings: time 30-120 min
Staphylococcus aureus [26] = assay: Induction of morphological changes in Staphylococcus aureus ATCC 25923 assessed as membrane disruption at 2 times of MIC incubated for 30 to 120 mins by SEM analysis; type: functional, organism-based; settings: time 30-120 min
Staphylococcus aureus [27] = assay: Induction of morphological changes in Staphylococcus aureus ATCC 25923 assessed as content leakage at 2 times of MIC incubated for 30 to 120 mins by SEM analysis; type: functional, organism-based; settings: time 30-120 min
[28] = Toxicity in male Balb/c mouse assessed as effect on survival at 63.5 mg/kg, ip measured after 7 days; type: organism-based; settings: in vivo, 168 h, time 7 day
[29] = Toxicity in male Balb/c mouse assessed as animal death at 127 mg/kg, ip measured within 2 days; type: organism-based; settings: in vivo, 48 h, time < 2 day
Klebsiella pneumoniae [30] = assay: Antibacterial activity against Klebsiella pneumoniae ATCC 700603 infected in male Balb/c mouse model of pneumonia assessed as decrease in bacterial load in lung at 2.5 to 10 mg/kg, ip administered at 4 and 12 hrs post-infected and measured after 24 hrs by agar plate method; type: functional, organism-based; settings: dose 2.5-10 mg/kg, time 20.0 hrs
Klebsiella pneumoniae [31] = assay: Antibacterial activity against Klebsiella pneumoniae ATCC 700603 infected in male Balb/c mouse model of pneumonia assessed as increase in alveoli expansion in lung at 2.5 mg/kg, ip administered at 4 and 12 hrs post-infected and measured after 24 hrs by H and E staining based analysis; type: functional, organism-based; settings: time 20.0 hrs
Staphylococcus aureus [32] = assay: (§1) Antibacterial activity against methicillin-resistant Staphylococcus aureus ATCC 33591 infected in male Balb/c mouse model of full thickness skin wound assessed as reduction in bacteria in skin wound at 1 mg/ml pre-infected with bacteria for 1 hrs followed by compound administration at 1,12 and 36 hrs post infection and measured after 10 days by photographic analysis; type: functional, organism-based; settings: time 10.0 day
Staphylococcus aureus [33] = assay: as §1, with “1,24,48” for “1,12”, “72” for “36”; type: functional, organism-based; settings: time 10.0 day

## H-RRWFRRWRRWFR-NH2
Staphylococcus aureus [1]
  EC90: 2.78 µM
Escherichia coli
  EC90: 5.08 µM
Pseudomonas aeruginosa [2]
  EC90: 0.574 µM
Staphylococcus aureus [3]
  Activity: Active
Staphylococcus aureus [4]
  Activity: inactive
Staphylococcus aureus [5]
  Activity: inactive
Pseudomonas aeruginosa [6]
  fold change (FC): 2
Staphylococcus aureus [7]
  fold change (FC): 2
Staphylococcus aureus [8]
  Activity: Active
Pseudomonas aeruginosa [9]
  fold change (FC): 32
Staphylococcus aureus [10]
  fold change (FC): 32
Staphylococcus aureus [11]
  Activity: inactive
Pseudomonas aeruginosa [12]
  Activity: inactive
Staphylococcus aureus [13]
  inhibition (INH): 35%
Pseudomonas aeruginosa [14]
  fold change (FC): <=2
Staphylococcus aureus [15]
  fold change (FC): <=2
Pseudomonas aeruginosa [16]
  fold change (FC): <=2
Pseudomonas aeruginosa [17]
  fractional inhibitory concentration index (FICI): 0.5
Pseudomonas aeruginosa [18]
  Activity: Time-dependent-effect
Staphylococcus aureus [19]
  Activity: Time-dependent-effect
Pseudomonas aeruginosa [20]
  Activity: Dose-dependent-effect
Staphylococcus aureus [21]
  Activity: Dose-dependent-effect
Staphylococcus aureus [22]
  Activity: Active
Cell membrane
  Activity: Active; Lower Concentration Of Compound Is Sufficient To Disrupt Inner Membrane
Pseudomonas aeruginosa [23]
  Activity: Active
Pseudomonas aeruginosa [24]
  Activity: Active
Staphylococcus aureus [25]
  Activity: Active
Staphylococcus aureus [26]
  Activity: Active
Staphylococcus aureus [27]
  Activity: Active
[28]
  Activity: Non-toxic
[29]
  Activity: Toxic
Klebsiella pneumoniae [30]
  Activity: Active
Klebsiella pneumoniae [31]
  Activity: Active
Staphylococcus aureus [32]
  Activity: Active; Obvious Facilitation Of Wound Healing Not Observed
Staphylococcus aureus [33]
  Activity: Active; Obvious Facilitation Of Wound Healing Not Observed
